Values of other authors in patent US20030064122A1 (priority 2001, published 2003).

System: nasal mucosa of men and women
Details: introduced to the nasal mucosa of men and women

## COc1cc(CNC(=O)CCCCC=CC(C)C)ccc1O [Capsaicin, 8-Methyl-N-vanillyl-6-nonenamide]
  amount shown to induce secretion, sneezing, and/or cough: 75 micrograms
